Key:
[1] = Acid‐assisted dissociation (decomplexation) of Sc(III) complexes, UV spectroscopy; assay type: physicochemical
Source text: The inertness of metal complexes is a basic requirement in all relevant modalities of medical imaging. Complexes of macrocyclic ligands are often more inert compared to open‐chain analogs. In order to assess the behavior of our complexes, the decomplexation of [Sc(PC2AM^nBu)]^+ and [Sc(PCTA)] was studied in a strongly acidic medium (cH + = 1.6 ‐ 2.6 M HClO4) by using UV spectroscopy. […] The primary Abs. versus time curves have been fitted by monoexponential function returning kobs (s^−1) values (Figures S22 and S23).
The plots of the rate constants as a function of acid concentration yielded linear relationships for both complexes (k obs = k 0 + k 1[H^+]). The slopes of these lines correspond to the rate coefficients characteristic for acid‐assisted dissociation (k 1), whereas the intercepts characterize the acid‐independent part, often referred to as a rate of spontaneous dissociation. […] The rate coefficients obtained during the fitting are summarized in Table 3, along with the half‐lives calculated from the rate coefficients by using 1 M acid concentration (t ½ = ln 2 / k obs).
Kinetic studies of the dissociation of the [Sc(PC2AMnBu)]^+ and [Sc(PCTA)] complexes were carried out by examining the dependence of the dissociation rates on acid concentration. Spectrophotometric measurements were conducted on a JASCO V‐760 spectrophotometer at λ = 280 nm. The concentration of the complex in the sample was 0.30 mM, and HClO4 was applied in concentrations ranging from 1.6 to 2.6 M. The evaluation of the measured data was performed with Scientist software ^[ [62] ^] to determine the k 0 (spontaneous) and k 1 (acid‐assisted) reaction rates.

[2] = Stability constants of Sc(III) complexes, out‐of‐cell (batch) samples, 45Sc NMR; assay type: physicochemical; details: I = 1.00 M NaCl; for pSc: pSc = ‐log[Sc(III)]free, cSc(III) = 1x10^−8 M, clig = 1x10^−7 M; for log K ScL: stability constant of the Sc(III) complex, T = 25 °C
Method: The stability constant of the complex of PC2AM^nBu ligand formed with Sc(III) ion was studied using “out‐of‐cell” (batch) samples using ^45Sc NMR spectroscopy in strongly acidic media. Typical ^45Sc NMR spectra are shown in Figure 5 along with the corresponding ^1H NMR spectra of the aromatic region of the ligand.
Using the ^45Sc NMR signal intensities of free Sc^3+ measured in the equilibrated samples, the stability constant, K ScL, was calculated by fitting the areas with the PSEQUAD program ^[ [47] ^] (Figure 6). The best fitting was observed by considering the simplest model including only [Sc(PC2AM^nBu)]^+ species; that is, the formation of protonated [Sc(HPC2AM^nBu)]^2+ cannot be confirmed.
The stability constant of the [Sc(PCTA)] complex was determined in a similar way (Figure S13). The results were summarized in Table 2, including the data of [Sc(DO3AM‐NI)], determined in our previous study.^[ [33] ^]
Among the complexes shown in Table 2, the [Sc(DO3AM‐NI)] complex has the highest stability, but its stability constant is lower than the corresponding values of [Sc(DOTA)]^− (log K ScL = 30.79) and [Sc(DTPA)]^2− (log K ScL = 27.43). ^[ [49] ^] As evidenced for DO3AM‐mono(amide) the replacement of acetate side chains with amide groups results in a decrease in stability constant (and conditional stability); therefore, we can see an order of magnitude difference between the stabilities of [Sc(PCTA)] and [Sc(PC2AM^nBu)]^+. Although these K ScL constants and pSc values are somewhat lower than those of the complexes formed with traditional DOTA and DTPA ligands, these chelators remain remarkably good Sc(III)‐binding chelators. […] Therefore, following the proposal of M. Meyer and colleagues,^[ [48] ^] […] For the AL/M values, 1 corresponds to 90%, 2 corresponds to 99%, 3 corresponds to 99.9% etc. for complex formation. […] The AL/M data of the [Sc(PC2AM^nBu)]^+ complex only exceeds that of the [Sc(DO3AM‐NI)] complex in the pH < 3.0 range, which can be advantageous for labeling at low pH. Furthermore, based on the data in Table 2, it can be concluded that for these systems there is no discrepancy between the trends observed in the pSc and AL/M values.
The stability constant of [Sc(PC2AM^nBu)]^+ and [Sc(PCTA)] complexes was studied using “out‐of‐cell” (batch) samples using ^45Sc and ^1H NMR spectroscopy. The NMR spectra were obtained using a Bruker Avance II DRX spectrometer (9.4 T), equipped with Bruker Variable Temperature Unit, Bruker Cooling Unit, and a 5 mm BB inverse z gradient probe. For the investigation of [Sc(PC2AMnBu)]⁺, twelve samples (cSc(III) = 3.00 mM, cligand = 3.06 mM, in the pH range of –log[H^+] = 0.1–1.3; I = 1.0 M NaCl/HCl) were prepared in NMR tubes and kept at 25 °C for one week to reach equilibrium. During this period, ^1H and ^45Sc NMR measurements were performed daily to monitor changes in signal intensities. No significant changes were detected after one week, even in the most acidic sample. The intensities of the free Sc(III) signals were normalized using a standard 50 mM ScCl3 solution containing 1 M HCl (20% D2O). For the determination of the stability of the [Sc(PCTA)] complex, eleven “batch” samples (cSc(III) = 4.00 mM, cligand = 4.08 mM), in the pH range of –log[H^+] = 0.1–1.25, were prepared. The evaluation of the measured data was performed using the PSEQUAD program.^[ [47] ^] Samples were prepared in H2O, with 10% D2O added for deuterium lock. The actual resonance frequencies for ^1H, ^13C, ^19F, and ^45Sc are indicated in the text and figure captions. The chemical shifts of ^1H and ^13C were calibrated using an external TMS standard, while ^19F was referenced to CCl3F. The ^45Sc NMR shift was calibrated to 0 ppm using a 5 mM solution of ScCl3 in 0.1 M HCl.

[3] = dissociation of the Sc(III) complex, 1.6‐2.6 M HClO4, 25 °C, I = 2.6 M

t 1/2 of dissociation (1 M H^+) ([1]; calculated from rate coefficients at 1 M acid concentration, 25 °C) | pSc ([2]; pH = 7.4) | log K ScL [2] | AL/M (relative affinity) ([2]; [Sc(III)]total = 10 nM, [L]tot = 100 nM, pH = 7.4) | Structure (SMILES) | k 0 (spontaneous dissociation) [1, 3] | k 1 (acid‐assisted dissociation) [1, 3]
22 days | 19.32 | 19.53(4) |  | CCCCNC(=O)CN1CCN(CC(=O)[O-])Cc2cccc(n2)CN(CC(=O)[O-])CC1.[Sc+3] [[Sc(PC2AM^nBu)]^+] |  | 
 | 21.28 | 22.41(9) | 7.14 | O=C(O)CN1CCN(CC(=O)O)Cc2cccc(n2)CN(CC(=O)O)CC1 [PCTA, reference compound] | (4.21 ± 0.81) x 10^−6 s^−1 | (2.11 ± 0.38) x 10^−6 M^−1s^−1

From publication PMC12731536, “Sc(III) Complexes of Pyclen Derivative Ligands as Probes for Hypoxia: Synthesis, Chemical Characterization, ^44Sc‐Radiolabeling, and Preclinical Assessment” (Chemistry (Weinheim an Der Bergstrasse, Germany), 2025)
